Data taken from PubChem BioAssay (NCI).
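Dose response: 5 concentrations. Exposure: 48 h. Format: 96-well plates. Endpoint: linear interpolation; highest concentration if not reached. TGI: concentration producing complete growth inhibition.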

Tests used:
Assay in all cases: NCI-60 cell line screen, 48 h
786-0 renal = system: 786-0 renal
A549 NSCLC = system: A549 NSCLC
ACHN renal = system: ACHN renal
BT-549 breast = system: BT-549 breast
CAKI-1 renal = system: CAKI-1 renal
CCRF-CEM leukemia = system: CCRF-CEM leukemia
COLO 205 colon = system: COLO 205 colon
DU-145 prostate = system: DU-145 prostate
EKVX NSCLC = system: EKVX NSCLC
HCT-116 colon = system: HCT-116 colon
HCT-15 colon = system: HCT-15 colon
HL-60(TB) leukemia = system: HL-60(TB) leukemia
HOP-62 NSCLC = system: HOP-62 NSCLC
HOP-92 NSCLC = system: HOP-92 NSCLC
HS 578T breast = system: HS 578T breast
HT29 colon = system: HT29 colon
IGROV1 ovarian = system: IGROV1 ovarian
K-562 leukemia = system: K-562 leukemia
KM12 colon = system: KM12 colon
LOX IMVI melanoma = system: LOX IMVI melanoma
M14 melanoma = system: M14 melanoma
MALME-3M melanoma = system: MALME-3M melanoma
MDA-MB-231 breast = system: MDA-MB-231 breast
MDA-MB-435 = system: MDA-MB-435
MDA-N = system: MDA-N
MOLT-4 leukemia = system: MOLT-4 leukemia
NCI-H226 lung = system: NCI-H226 lung
NCI-H23 lung = system: NCI-H23 lung
NCI-H460 lung = system: NCI-H460 lung
NCI-H522 lung = system: NCI-H522 lung
NCI/ADR-RES ovarian = system: NCI/ADR-RES ovarian
OVCAR-3 ovarian = system: OVCAR-3 ovarian
OVCAR-4 ovarian = system: OVCAR-4 ovarian
OVCAR-5 ovarian = system: OVCAR-5 ovarian
OVCAR-8 ovarian = system: OVCAR-8 ovarian
PC-3 prostate = system: PC-3 prostate
RPMI-8226 leukemia = system: RPMI-8226 leukemia
RXF 393 renal = system: RXF 393 renal
SF-268 CNS = system: SF-268 CNS
SF-295 CNS = system: SF-295 CNS
SF-539 CNS = system: SF-539 CNS
SK-MEL-2 melanoma = system: SK-MEL-2 melanoma
SK-MEL-28 melanoma = system: SK-MEL-28 melanoma
SK-MEL-5 melanoma = system: SK-MEL-5 melanoma
SK-OV-3 ovarian = system: SK-OV-3 ovarian
SN12C renal = system: SN12C renal
SNB-19 CNS = system: SNB-19 CNS
SNB-75 CNS = system: SNB-75 CNS
SR leukemia = system: SR leukemia
SW-620 colon = system: SW-620 colon
T-47D breast = system: T-47D breast
TK-10 renal = system: TK-10 renal
U251 CNS = system: U251 CNS
UACC-257 melanoma = system: UACC-257 melanoma
UO-31 renal = system: UO-31 renal

COc1ccc(C2=NN(C(=O)c3cccnc3)C(O)(c3cc(F)c(Cl)cc3Cl)C2)cc1OC (stereo unspecified)
TGI (786-0 renal): 62.2 µM
TGI (A549 NSCLC): > 100 µM
TGI (ACHN renal): 57.9 µM
TGI (BT-549 breast): 41.5 µM
TGI (CAKI-1 renal): > 100 µM
TGI (CCRF-CEM leukemia): > 100 µM
TGI (COLO 205 colon): 27.8 µM
TGI (DU-145 prostate): > 100 µM
TGI (EKVX NSCLC): 73.6 µM
TGI (HCT-116 colon): 29.2 µM
TGI (HCT-15 colon): 35 µM
TGI (HL-60(TB) leukemia): 40.9 µM
TGI (HOP-62 NSCLC): 47.7 µM
TGI (HOP-92 NSCLC): 50.8 µM
TGI (HS 578T breast): 66.9 µM
TGI (HT29 colon): 34.9 µM
TGI (IGROV1 ovarian): 30.5 µM
TGI (K-562 leukemia): 69 µM
TGI (KM12 colon): > 100 µM
TGI (LOX IMVI melanoma): 27.2 µM
TGI (M14 melanoma): 34.6 µM
TGI (MALME-3M melanoma): 59.1 µM
TGI (MDA-MB-231 breast): 37.9 µM
TGI (MDA-MB-435): 87.4 µM
TGI (MDA-N): 90 µM
TGI (MOLT-4 leukemia): > 100 µM
TGI (NCI-H226 lung): 30 µM
TGI (NCI-H23 lung): 71.7 µM
TGI (NCI-H460 lung): 38.3 µM
TGI (NCI-H522 lung): 34.9 µM
TGI (NCI/ADR-RES ovarian): 49.9 µM
TGI (OVCAR-3 ovarian): 27.6 µM
TGI (OVCAR-4 ovarian): > 100 µM
TGI (OVCAR-5 ovarian): > 100 µM
TGI (OVCAR-8 ovarian): 35.7 µM
TGI (PC-3 prostate): 43.3 µM
TGI (RPMI-8226 leukemia): 73 µM
TGI (RXF 393 renal): 33.5 µM
TGI (SF-268 CNS): 39.8 µM
TGI (SF-295 CNS): 39 µM
TGI (SF-539 CNS): 33.5 µM
TGI (SK-MEL-2 melanoma): 32 µM
TGI (SK-MEL-28 melanoma): 54.4 µM
TGI (SK-MEL-5 melanoma): 25 µM
TGI (SK-OV-3 ovarian): 86.7 µM
TGI (SN12C renal): 34.7 µM
TGI (SNB-19 CNS): > 100 µM
TGI (SNB-75 CNS): 62.9 µM
TGI (SR leukemia): 53.7 µM
TGI (SW-620 colon): 69.8 µM
TGI (T-47D breast): > 100 µM
TGI (TK-10 renal): > 100 µM
TGI (U251 CNS): 29.1 µM
TGI (UACC-257 melanoma): 34.2 µM
TGI (UO-31 renal): 85 µM

CCC1=[N+]([O-])C(C)(C)NC1(C)C
TGI (A549 NSCLC): > 10 µM
TGI (ACHN renal): > 10 µM
TGI (CAKI-1 renal): > 10 µM
TGI (COLO 205 colon): > 10 µM
TGI (DU-145 prostate): > 10 µM
TGI (EKVX NSCLC): > 10 µM
TGI (HCT-116 colon): > 10 µM
TGI (HCT-15 colon): > 10 µM
TGI (HOP-92 NSCLC): > 10 µM
TGI (HT29 colon): > 10 µM
TGI (IGROV1 ovarian): > 10 µM
TGI (KM12 colon): > 10 µM
TGI (M14 melanoma): > 10 µM
TGI (MDA-MB-231 breast): > 10 µM
TGI (MDA-MB-435): > 10 µM
TGI (MDA-N): > 10 µM
TGI (NCI-H226 lung): > 10 µM
TGI (NCI-H23 lung): > 10 µM
TGI (NCI/ADR-RES ovarian): > 10 µM
TGI (OVCAR-3 ovarian): > 10 µM
TGI (OVCAR-4 ovarian): > 10 µM
TGI (OVCAR-5 ovarian): > 10 µM
TGI (OVCAR-8 ovarian): > 10 µM
TGI (PC-3 prostate): > 10 µM
TGI (RXF 393 renal): > 10 µM
TGI (SF-268 CNS): > 10 µM
TGI (SF-295 CNS): > 10 µM
TGI (SF-539 CNS): > 10 µM
TGI (SK-MEL-28 melanoma): > 10 µM
TGI (SK-MEL-5 melanoma): > 10 µM
TGI (SN12C renal): > 10 µM
TGI (SNB-19 CNS): > 10 µM
TGI (SNB-75 CNS): > 10 µM
TGI (SW-620 colon): > 10 µM
TGI (TK-10 renal): > 10 µM
TGI (U251 CNS): > 10 µM
